Where a SMILES comes first, the peptide text is derived from it. [ ]: non-standard residue; d: D form. The star is where a group is joined. DOTA = O=C(O)CN1CCN(CC(=O)O)CCN(CC(=O)*)CCN(CC(=O)O)CC1
What was measured:
human CCK2R = target: T1, human CCK2R (Homo sapiens, UniProt P32239); assay: CCK2R competition binding assay against [125I]Tyr12-gastrin-I on A431-CCK2R cells; conditions: displacement of [125I]Tyr12-gastrin-I, A431-CCK2R cells, 1 h at RT; read-out: IC50
T1 construct: expressed in transfected cells; host or cells: A431 human epidermoid carcinoma cells (A431-CCK2R), plasmid pCR3.1, provided by Dr. Luigi Aloj
T1 sequence (P32239 1-447): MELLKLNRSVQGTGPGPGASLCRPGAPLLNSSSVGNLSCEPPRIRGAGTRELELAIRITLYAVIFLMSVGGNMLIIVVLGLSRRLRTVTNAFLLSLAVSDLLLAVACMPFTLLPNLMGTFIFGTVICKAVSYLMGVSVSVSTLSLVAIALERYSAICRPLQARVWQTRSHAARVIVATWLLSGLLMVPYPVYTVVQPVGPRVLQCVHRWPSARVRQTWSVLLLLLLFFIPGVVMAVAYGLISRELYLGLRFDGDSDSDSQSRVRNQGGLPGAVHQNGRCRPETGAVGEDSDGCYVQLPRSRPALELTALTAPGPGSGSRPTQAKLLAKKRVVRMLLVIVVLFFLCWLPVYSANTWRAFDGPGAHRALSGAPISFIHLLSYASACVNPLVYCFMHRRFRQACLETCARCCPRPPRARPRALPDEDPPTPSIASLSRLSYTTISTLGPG
Method: Affinity for CCK2R was studied in A431 human epidermoid carcinoma cells stably transfected with the plasmid pCR3.1 containing the full coding sequence for the human CCK2R (A431-CCK2R) kindly provided by Dr. Luigi Aloj (Aloj L et al., J Nucl Med 2004, 45: 485-494). […] Radioiodination of gastrin-1 was carried out using the chloramine-T method. Non-carrier-added [^125I-Tyr^12]gastrind was obtained by HPLC purification and stored in aliquots at −20° C. Binding assays were carried out in 96-well filter plates (MultiScreenHTS-FB, Merck Group, Darmstadt, Germany) pretreated with 10 mM TRIS/139 mM NaCl pH 7.4 (2×250 μl). For the assay a number of 200,000-400,000 A431-CCK2R cells per well was prepared in 35 mM HEPES buffer pH 7.4 containing 10 mM MgCl2, 14 μM bacitracin and 0.5% BSA (a hypotonic solution disturbing the integrity of the cell membranes). The cells were incubated in triplicates with increasing concentrations of the peptidomimetics (0.0003 to 10,000 nM, for example 0.001 to 1000 nM) and [^125I-Tyr^12]gastrin-I (20,000-60,000 cpm) for 1 h at RT. Incubation was interrupted by filtration of the medium and rapid rinsing with ice-cold 10 mM TRIS/139 mM NaCl pH 7.4 (2×200 μl) and the filters were counted in the gamma-counter. Half maximal inhibitory concentration (IC50) values were calculated following nonlinear regression with Origin software (Microcal Origin 6.1, Northampton, MA) and a representative assay was chosen for comparison.

[1] = cited from earlier work

## CSCC[C@H](NC(=O)[C@H](Cc1c[nH]c2ccccc12)NC(=O)CNC(=O)[C@H](Cc1ccc(O)cc1)NC(=O)[C@H](C)NC(=O)[C@@H](CCC(=O)O)NC(=O)CN1CCN(CC(=O)O)CCN(CC(=O)O)CCN(CC(=O)O)CC1)C(=O)N[C@@H](CC(=O)O)C(=O)N[C@@H](Cc1ccccc1)C(N)=O [DOTA-MG11, [1,4,7,10-tetraazacyclodocecan-1,4,7,10-tetraacetic acid^0,D-Glu^1,DesGlu^2-6]minigastrin, reference compound] ({DOTA}-[dE]AYGWMDF-NH2)
Human CCK2R
  IC50: 0.9 ± 0.5 nM
[1]
  biological half-life in vivo: below five
